Target: T1, AR protein (Homo sapiens, UniProt P10275)
T1 construct: host or cells: VCaP
T1 sequence (P10275 1-920): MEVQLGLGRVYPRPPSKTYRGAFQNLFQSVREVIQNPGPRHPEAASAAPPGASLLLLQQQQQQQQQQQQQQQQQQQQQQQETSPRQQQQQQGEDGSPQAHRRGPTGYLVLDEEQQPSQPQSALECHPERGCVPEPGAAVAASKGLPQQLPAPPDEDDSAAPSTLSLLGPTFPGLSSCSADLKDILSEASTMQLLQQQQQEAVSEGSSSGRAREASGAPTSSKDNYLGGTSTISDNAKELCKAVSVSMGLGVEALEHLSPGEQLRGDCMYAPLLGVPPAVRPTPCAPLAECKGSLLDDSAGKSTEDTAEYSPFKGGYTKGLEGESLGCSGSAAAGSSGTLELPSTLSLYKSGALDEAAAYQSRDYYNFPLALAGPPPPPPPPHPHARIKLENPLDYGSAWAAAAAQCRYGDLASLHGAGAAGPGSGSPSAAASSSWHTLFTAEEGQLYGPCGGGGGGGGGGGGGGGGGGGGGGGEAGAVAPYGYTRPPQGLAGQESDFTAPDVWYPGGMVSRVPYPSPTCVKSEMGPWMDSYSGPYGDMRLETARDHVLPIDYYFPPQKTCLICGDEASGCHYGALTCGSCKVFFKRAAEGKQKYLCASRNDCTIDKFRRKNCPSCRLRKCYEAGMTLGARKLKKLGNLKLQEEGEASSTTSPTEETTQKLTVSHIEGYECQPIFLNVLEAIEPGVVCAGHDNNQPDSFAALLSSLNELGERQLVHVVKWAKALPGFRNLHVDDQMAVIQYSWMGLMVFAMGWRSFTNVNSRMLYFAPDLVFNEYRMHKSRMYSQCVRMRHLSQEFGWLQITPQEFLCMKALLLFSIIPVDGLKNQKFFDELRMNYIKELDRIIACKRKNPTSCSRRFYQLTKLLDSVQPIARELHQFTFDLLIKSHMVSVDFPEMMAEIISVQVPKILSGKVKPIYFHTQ
Assay: AR protein degradation in VCaP cells (Western blot)
Format: cell-based
Details: 8h
Procedure, shortened: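 AR-positive VCaP human prostate cancer cells grown in DMEM with 10% FBS were plated in six-well plates at 3×10^5 cells/well and incubated overnight. Compounds were then added at 1 µL/well alongside a solvent control and incubated for 8h. Lysates in RIPA buffer with protease inhibitor were quantified by BCA and run by SDS-PAGE. AR was detected by Western blot, and degradation was calculated from band grayscale normalized to GAPDH.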

Row | SMILES | Degradation rate of AR protein in VCaP cells (0.5 nM) | Degradation rate of AR protein in VCaP cells (5 nM) | AR protein degradation rate at fixed concentration (%) at 0.0005 µM (0.5 nM) | AR protein degradation rate at fixed concentration (%) at 0.005 µM (5 nM)
1 | COc1cc(O[C@H]2C(C)(C)[C@H](NC(=O)c3ccc(N4CCC(C)(CN5CCC6(CCc7cc(C(=O)N[C@H]8CCC(=O)NC8=O)c(F)cc7O6)CC5)CC4)cc3)C2(C)C)ccc1C#N [A-P-31, 1'-((1-((4-((1r,3r)-3-(4-cyano-3-methoxyphenoxy)-2,2,4,4-tetramethylcyclobutyl)carbamoyl)phenyl)-4-methylpiperidin-4-yl)methyl)-N-((S)-2,6-dioxopiperidin-3-yl)-7-fluorospiro[2,4'-piperidin]-6-carboxamide] |  |  | -13% | 41%
2 | C[C@H]1CC2(CCN(c3ccc(C(=O)N4CCC(CN5CCC6(CCc7cc(C(=O)N[C@H]8CCC(=O)NC8=O)c(F)cc7O6)CC5)CC4)cc3)CC2)CN1c1ccc(C#N)c(Cl)c1 [A-P-35, 1'-((1-(4-((S)-2-(3-chloro-4-cyanophenyl)-3-methyl-2,8-diazaspiro[4.5]decan-8-yl)benzoyl)piperidin-4-yl)methyl)-N-((S)-2,6-dioxopiperidin-3-yl)-7-fluorospiro[chroman-2,4'-piperidin]-6-carboxamide] |  |  | 9% | 18%
3 | COc1cc(O[C@H]2C(C)(C)[C@H](NC(=O)c3ccc(N4CCC(CN5CCC6(CCc7cc(C(=O)N[C@H]8CCC(=O)NC8=O)c(F)cc7O6)CC5)(OC)CC4)cc3)C2(C)C)ccc1C#N [A-P-36] | 9% | 45% |  | 
4 | COc1cc(O[C@H]2C(C)(C)[C@H](NC(=O)c3ccc(N4CCC5(CC4)CC(N4CCC6(CCc7cc(C(=O)N[C@H]8CCC(=O)NC8=O)c(F)cc7O6)CC4)C5)cc3)C2(C)C)ccc1C#N [A-P-37, 1'-(7-(4-(((1R,3R)-3-(4-cyano-3-methoxyphenoxy)-2,2,4,4-tetramethylcyclobutyl)carbamoyl)phenyl)-7-azaspiro[3.5]nonan-2-yl)-N-((S)-2,6-dioxopiperidin-3-yl)-7-fluorospiro[chroman-2,4'-piperidin]-6-carboxamide] | 25% | 49% |  | 
5 | COc1cc(O[C@H]2C(C)(C)[C@H](NC(=O)c3ccc(N4CCC(C)(CN5CCC6(CCc7cc(F)c(C(=O)N[C@H]8CCC(=O)NC8=O)cc7O6)CC5)CC4)cc3)C2(C)C)ccc1C#N [A-P-38, 1-(1-(4-((1R,3R)-3-((4-cyano-3-methoxyphenoxy)-2,2,4,4-tetramethylcyclobutyl)carbamoyl)phenyl)-4-methylpiperidin-4-methyl)-N-((S)-2,6-dioxopiperidin-3-yl)-6-fluorospiro[chroman-2,4'-piperidin]-7-carboxamide] | -21% | -5% |  | 
6 | COc1cc(O[C@H]2C(C)(C)[C@H](NC(=O)c3ccc(N4CCC(CN5CCC6(CCc7cc(F)c(C(=O)N[C@H]8CCC(=O)NC8=O)cc7O6)CC5)CC4)cc3)C2(C)C)ccc1C#N [A-P-39] | -6% | 9% |  | 
7 | COc1cc(O[C@H]2C(C)(C)[C@H](NC(=O)c3ccc(N4CCC(CN5CCC6(CCc7cc(F)c(C(=O)N[C@H]8CCC(=O)NC8=O)cc7O6)CC5)(OC)CC4)cc3)C2(C)C)ccc1C#N [A-P-40] | -8% | 10% |  | 
8 | COc1cc(O[C@H]2C(C)(C)[C@H](NC(=O)c3ccc(N4CCC(F)(CN5CCC6(CCc7cc(F)c(C(=O)N[C@H]8CCC(=O)NC8=O)cc7O6)CC5)CC4)cc3)C2(C)C)ccc1C#N [A-P-41] | 13% | 18% |  | 
9 | C[C@H]1CC2(CCN(c3ccc(N4CCC(CN5CCC6(CCc7cc(C(=O)N[C@H]8CCC(=O)NC8=O)c(F)cc7O6)CC5)CC4)cc3)CC2)CN1c1ccc(C#N)c(Cl)c1 [A-P-42, 1'-((1-(4-((S)-2-(3-chloro-4-cyanophenyl)-3-methyl-2,8-diazaspiro[4.5]decan-8-yl)phenyl)piperidin-4-yl)methyl)-N-((S)-2,6-dioxopiperidin-3-yl)-7-fluorospiro[chroman-2,4'-piperidin]-6-carboxamide] |  |  | -40% | -4%
10 | COc1cc(O[C@H]2C(C)(C)[C@H](NC(=O)c3ccc(N4CCC(C)(CN5CCC6(CCc7cc(C(=O)N[C@H]8CCC(=O)NC8=O)c(F)cc7O6)CC5)CC4)cn3)C2(C)C)ccc1C#N [A-P-43, 1'-((1-(6-(((1r,3r)-3-(4-cyano-3-methoxyphenoxy)-2,2,4,4-tetramethylcyclobutyl)carbamoyl)pyridin-3-yl)-4-methylpiperidin-4-yl)methyl)-N-((S)-2,6-dioxopiperidin-3-yl)-7-fluorospiro[chroman-2,4'-piperidin]-6-carboxamide] | 33% | 32% |  | 
11 | COc1cc(O[C@H]2C(C)(C)[C@H](NC(=O)c3ccc(N4CCC(C)(CN5CCC6(CCc7cc(C(=O)N[C@H]8CCC(=O)NC8=O)c(F)cc7O6)CC5)CC4)nn3)C2(C)C)ccc1C#N [A-P-48, 1'-((1-(6-(((1R,3R)-3-(4-cyano-3-methoxyphenoxy)-2,2,4,4-tetramethylcyclobutyl)carbamoyl)pyridazin-3-yl)-4-methylpiperidin-4-yl)methyl)-N-((S)-2,6-dioxopiperidin-3-yl)-7-fluorospiro[chroman-2,4'-piperidin]-6-carboxamide] | -23% | -1% |  | 

Second part, led by results:

Row | Degradation rate of AR protein in VCaP cells (0.5 nM) | Degradation rate of AR protein in VCaP cells (5 nM) | SMILES | AR protein degradation rate at fixed concentration (%) at 0.0005 µM (0.5 nM) | AR protein degradation rate at fixed concentration (%) at 0.005 µM (5 nM)
12 | 56% | 84% | COc1cc(O[C@H]2C(C)(C)[C@H](NC(=O)c3ccc(N4CCC(CN5CCC6(CCc7cc(C(=O)N[C@H]8CCC(=O)NC8=O)c(F)cc7O6)CC5)CC4)nc3)C2(C)C)ccc1C#N [A-P-33, 1'-((1-(5-(((1R,3R)-3-(4-cyano-3-methoxyphenoxy)-2,2,4,4-tetramethylcyclobutyl)carbamoyl)pyridin-2-yl)piperidin-4-yl)methyl)-N-((S)-2,6-dioxopiperidin-3-yl)-7-fluorospiro[chroman-2,4'-piperidin]-6-carboxamide] |  | 
13 | 0% | 47% | COc1cc(O[C@H]2C(C)(C)[C@H](NC(=O)c3ccc(N4CCC(CN5CCC6(CCc7cc(C(=O)N[C@H]8CCC(=O)NC8=O)c(F)cc7O6)CC5)CC4)nn3)C2(C)C)ccc1C#N [A-P-34, 1'-((1-(6-(((1R,3R)-3-(4-cyano-3-methoxyphenoxy)-2,2,4,4-tetramethylcyclobutyl)carbamoyl)pyridazin-3-yl)piperidin-4-yl)methyl)-N-((S)-2,6-dioxopiperidin-3-yl)-7-fluorospiro[chroman-2,4'-piperidin]-6-carboxamide] |  | 
14 | 44% | 77% | CC1(C)[C@H](NC(=O)c2ccc(N3CCC(CN4CCC5(CCc6cc(C(=O)N[C@H]7CCC(=O)NC7=O)c(F)cc6O5)CC4)CC3)nc2)C(C)(C)[C@H]1Oc1ccc(C#N)c(C(F)(F)F)c1 [A-P-45, 1'-((1-(5-(((1R,3R)-3-(4-cyano-3-(trifluoromethyl)phenoxy)-2,2,4,4-tetramethylcyclobutyl)carbamoyl)pyridin-2-yl)piperidin-4-yl)methyl)-N-((S)-2,6-dioxopiperidin-3-yl)-7-fluorospiro[chroman-2,4'-piperidin]-6-carboxamide] |  | 
15 | -15% | 45% | COc1cc(O[C@H]2C(C)(C)[C@H](NC(=O)c3ccc(N4CCC(C)(CN5CCC6(CCc7cc(C(=O)N[C@H]8CCC(=O)NC8=O)c(F)cc7O6)CC5)CC4)nc3)C2(C)C)ccc1C#N [A-P-49, 1'-((1-(5-(((1R,3R)-3-(4-cyano-3-methoxyphenoxy)-2,2,4,4-tetramethylcyclobutyl)carbamoyl)pyridin-2-yl)-4-methylpiperidin-4-yl)methyl)-N-((S)-2,6-dioxopiperidin-3-yl)-7-fluorospiro[chroman-2,4'-piperidin]-6-carboxamide] |  | 
16 | 84% | 87% | CC1(C)[C@H](NC(=O)c2ccc(N3CCC(CN4CCC5(CCc6cc(C(=O)N[C@H]7CCC(=O)NC7=O)c(F)cc6O5)CC4)CC3)nc2)C(C)(C)[C@H]1Oc1ccc(C#N)c(Cl)c1 [A-P-50, 1'-((1-(5-(((1R,3R)-3-(3-chloro-4-cyanophenoxy)-2,2,4,4-tetramethylcyclobutyl)carbamoyl)pyridin-2-yl)piperidin-4-yl)methyl)-N-((S)-2,6-dioxopiperidin-3-yl)-7-fluorospiro[chroman-2,4'-piperidin]-6-carboxamide] |  | 

Reference: patent publication EP4722219A1 (Gan & Lee Pharmaceuticals Co., Ltd., priority 2023, dated 2024)
